From publication PMC4874602 (ACS Infectious Diseases, 2016)
Read-outs that look alike come from different tables or passages of the source.

Columns and labels:
M. tuberculosis Erdman [1] = format: in vivo, Mycobacterium tuberculosis; details: C3HeB/FeJ, P < 0.01
[2] = system: Mycobacterium tuberculosis; details: cited from earlier work
in vivo [3] = details: C3HeB/FeJ, mouse, po, 150 mg/kg; for Cmax / half-life / Tmax: single 150 mg/kg oral dose of PZA; for half-life: t1/2, C3HeB/FeJ
in vivo [4] = details: BALB/c and C3HeB/FeJ, mouse, 150 mg/kg
in vivo [5] = details: BALB/c, mouse, po, 150 mg/kg; for Cmax / half-life / Tmax: single 150 mg/kg oral dose of PZA; for half-life: t1/2, BALB/c
[6] = BALB/c; for AUC8h: single 150 mg/kg oral dose of PZA; for Cmax / AUC168h / Tmax / t1/2: single 25 mg/kg oral dose of BDQ
[7] = C3HeB/FeJ; for AUC8h: single 150 mg/kg oral dose of PZA
THP-1 cells = details: 30 min exposure, 1 mM PZA, 0.4 mM POA
M. tuberculosis Erdman [8] = format: in vivo, Mycobacterium tuberculosis; details: BALB/c, P < 0.01
[9] = lung; single dose of 25 mg/kg BDQ; BALB/c and C3HeB/FeJ
[10] = cited from earlier work
[11] = PZA 150 mg/kg, first 3 weeks of treatment
[12] = PZA 300 mg/kg vs 150 mg/kg, first 3 weeks
[13] = lesion (cellular non-necrotizing, type III)
[14] = lesion (type I), single 25 mg/kg oral dose of BDQ
[15] = plasma, single 25 mg/kg oral dose of BDQ
[16] = uninvolved lung, single 25 mg/kg oral dose of BDQ
[17] = whole lung, single 25 mg/kg oral dose of BDQ

Compound: NC(=O)c1cnccn1 [PZA, pyrazinamide]
- change in pulmonary CFU (M. tuberculosis Erdman [1]; [11]): significant decrease in pulmonary CFU
- change in pulmonary CFU (M. tuberculosis Erdman [1]; [12]): larger decrease in CFU
- MIC ([2]; pH 7.0, standard laboratory culture conditions): > 1000 mg/mL
- AUC(0-t) (in vivo [3]): 329 µg·h/mL
- Kp (in vivo [3]; AUCLes/AUCplasma): 1.07
- Kp (in vivo [3]; AUCUL/AUCplasma): 0.72
- Kp (in vivo [3]; AUCWL/AUCplasma): 0.93
- Cmax (in vivo [3]; lesion (caseous necrotic granuloma, type I)): 94700 ng/g
- Cmax (in vivo [3]; plasma): 87.4 µg/mL
- Cmax (in vivo [3]; uninvolved lung): 66200 ng/g
- Cmax (in vivo [3]; whole lung): 76500 ng/g
- half-life (in vivo [3]; lesion (type I)): 2.88 h
- half-life (in vivo [3]; plasma, 2.5–8 h terminal): 2.6 h
- half-life (in vivo [3]; uninvolved lung): 3.01 h
- half-life (in vivo [3]; whole lung): 2.82 h
- Tmax (in vivo [3]; lesion (type I)): 1 h
- Tmax (in vivo [3]; plasma): 0.75 h
- Tmax (in vivo [3]; uninvolved lung): 1 h
- Tmax (in vivo [3]; whole lung): 1 h
- Tmax (in vivo [4]): 0.5 to 1 h
- AUC(0-t) (in vivo [5]): 346 µg·h/mL
- Kp (in vivo [5]; AUCLes/AUCplasma): 1.33
- Kp (in vivo [5]; AUCUL/AUCplasma): 0.76
- Kp (in vivo [5]; AUCWL/AUCplasma): 0.86
- Cmax (in vivo [5]; [13]): 146000 ng/g
- Cmax (in vivo [5]; plasma): 161 µg/mL
- Cmax (in vivo [5]; uninvolved lung): 93600 ng/g
- Cmax (in vivo [5]; whole lung): 123000 ng/g
- half-life (in vivo [5]; lesion (type III)): 0.96 h
- half-life (in vivo [5]; plasma, 2.5–8 h terminal): 1.05 h
- half-life (in vivo [5]; uninvolved lung): 0.75 h
- half-life (in vivo [5]; whole lung): 1.02 h
- Tmax (in vivo [5]; lesion (type III)): 0.5 h
- Tmax (in vivo [5]; plasma): 0.5 h
- Tmax (in vivo [5]; uninvolved lung): 0.5 h
- Tmax (in vivo [5]; whole lung): 0.5 h
- AUC8h ([6]; lesion (type III)): 459.4 µg·h/g
- AUC8h ([6]; uninvolved lung): 262.8 µg·h/g
- AUC8h ([6]; whole lung): 298.6 µg·h/g
- AUC8h ([7]; lesion (type I)): 351.8 µg·h/g
- AUC8h ([7]; uninvolved lung): 237.9 µg·h/g
- AUC8h ([7]; whole lung): 306.3 µg·h/g
- accumulation within THP-1 cells (THP-1 cells): accumulated to a very low degree
- change in pulmonary CFU (M. tuberculosis Erdman [8]; [11]): significant decrease in pulmonary CFU
- change in pulmonary CFU (M. tuberculosis Erdman [8]; [12]): larger decrease in CFU

Compound: CNCCC(O)(c1cccc2ccccc12)C(c1ccccc1)c1cc2cc(Br)ccc2nc1OC (stereo not shown) [M2, N-desmethyl-BDQ]
- MIC relative to BDQ [2]: approximately five times higher than that of BDQ
- tmax by MALDI-MSI [9]: 24 h
- protein bound [10]: more than 99%
- Cmax [6, 13]: 82.7 µg/g
- AUC168h ([6]; lesion (type III)): 7619 µg·h/g
- Tmax ([6]; lesion (type III)): 24 h
- t1/2 ([6]; lesion (type III)): 90.7 h
- AUC168h ([6]; plasma): 57.3 µg·h/mL
- Cmax ([6]; plasma): 0.76 µg/mL
- Tmax ([6]; plasma): 8 h
- t1/2 ([6]; plasma, 72–168 h terminal): 59.8 h
- AUC168h ([6]; uninvolved lung): 8825 µg·h/g
- Cmax ([6]; uninvolved lung): 111.8 µg/g
- Tmax ([6]; uninvolved lung): 24 h
- t1/2 ([6]; uninvolved lung): 69.7 h
- AUC168h ([6]; whole lung): 7207 µg·h/g
- Cmax ([6]; whole lung): 69.5 µg/g
- Tmax ([6]; whole lung): 24 h
- t1/2 ([6]; whole lung): 90.6 h
- concentration in dissected caseum of type I granulomas (LC/MS/MS) ([7]; 8 h following a single 25 mg/kg dose of BDQ, preliminary): 587.5 ng/g
- Cmax ([7]; lesion (caseous necrotic granuloma, type I), single 25 mg/kg oral dose of BDQ): 26.8 µg/g
- AUC168h [7, 14]: 2848 µg·h/g
- Tmax [7, 14]: 24 h
- t1/2 [7, 14]: 98.6 h
- AUC168h [7, 15]: 69.3 µg·h/mL
- Cmax [7, 15]: 0.70 µg/mL
- Tmax [7, 15]: 24 h
- plasma exposure (AUC168h) as printed in the discussion [7, 15]: 69.3 µg·h/g
- t1/2 ([7]; plasma, single 25 mg/kg oral dose of BDQ, 72–168 h terminal): 55.9 h
- AUC168h [7, 16]: 4895 µg·h/g
- Cmax [7, 16]: 46.9 µg/g
- Tmax [7, 16]: 24 h
- t1/2 [7, 16]: 89.4 h
- AUC168h [7, 17]: 5254 µg·h/g
- Cmax [7, 17]: 45.4 µg/g
- Tmax [7, 17]: 24 h
- t1/2 [7, 17]: 134.7 h
